The values that follow come from ChEMBL document CHEMBL4834469, “Balancing Properties with Carboxylates: A Lead Optimization Campaign for Selective and Orally Active CDK9 Inhibitors” (ACS Med Chem Lett, 2021).

Data set [1] in a line: in vivo. As to conditions: rat, po, 1 mg/kg.
Data set [2] is described as follows: in vitro. The following applies: rat, plasma.
Description: Plasma protein binding in rat
A short description of data set [3]: in vivo. The following applies: rat, po, 1 mg/kg. This is another data set of the same source.
Data set [4] can be described thus: in vitro. As to conditions: human, plasma.
Description: Plasma protein binding in human
Data set [5] can be described thus: in vivo. The following applies: rat, iv, 1 mg/kg.
Description: Volume of distribution at steady state in rat at 1 mg/kg, iv
Data set [6] is described as follows: in vivo. As to conditions: rat, iv, 1 mg/kg. The source holds these as a separate data set.
Description: Half life in rat at 1 mg/kg, iv
Data set [7] can be described thus: in vivo. The following applies: Sprague-Dawley, rat, iv, 10 mg/kg.
Description: Plasma concentration in anesthetized Sprague-Dawley rat upto 10 mg/kg, iv administered as single dose measured after 30 mins
In the next data set the test system is NCI-H929. Nature of the data set: cells. The following applies: Homo sapiens, NCI-H929, 24 h.

Description for NCI-H929: Antiproliferative activity against human NCI-H929 cells assessed as reduction in cell viability incubated for 24 hrs by Cell-Titer Glo assay

Compound `CCOC(=O)NS(=O)(=O)N1CC=C(c2cc3c(-c4cc(F)ccc4OC)ccnc3[nH]2)CC1` had a bioavailability in “in vivo [1]” of 64%. In addition, the fraction unbound in “in vitro [2]” was 0.042; in “in vitro [4]”, < 0.001. The same compound returned an AUC in “in vivo [3]” of 2400 ng·h/mL. The Vd in “in vivo [5]” came out at 0.29 L/kg. The compound further gave a half-life in “in vivo [6]” of 1.6 h.
Turning to `COc1ccc(F)cc1-c1c(F)cnc2[nH]c(C3=CCN([C@H]4CC[C@@H](C(=O)O)CC4)CC3)cc12`, in the data set “in vivo [1]”, the bioavailability stood at 13%. The fraction unbound in the data set “in vitro [2]” is 0.099; in “in vitro [4]”, 0.066. In “in vivo [3]”, this compound displayed an area under the curve (AUC) of 140 ng·h/mL. The distribution volume (Vd) in the data set “in vivo [5]” amounted to 2.6 L/kg. The compound also had a half-life in “in vivo [6]” of 3 h.
The compound `COc1ccc(F)cc1-c1c(F)cnc2[nH]c(C3=CCN([C@H]4CC[C@H](C(=O)O)CC4)CC3)cc12` had a bioavailability in the data set “in vivo [1]” of 28%. The fraction unbound is 0.106 in “in vitro [2]” and 0.059 in “in vitro [4]”. Besides, in the data set “in vivo [3]”, the exposure (AUC) amounted to 450 ng·h/mL. In addition, in “in vivo [5]”, the Vd is 2.7 L/kg. In the data set “in vivo [7]”, this compound displayed a concentration at 0.5 h of 9000 ng/mL. In addition, in the data set “in vivo [6]”, the half-life was 3.5 h.
`COc1ccc(F)cc1-c1ccnc2[nH]c(C3=CCC(N[C@@H](C(=O)O)C(C)C)CC3)cc12` (some centres undefined) came in with a bioavailability in the data set “in vivo [1]” of 0.2%. The results for the free fraction (fraction unbound) in “in vitro [2]” and in “in vitro [4]” were 0.057 and 0.023, respectively. Also, in the data set “in vivo [3]”, the AUC is < 10 ng·h/mL. Also, the distribution volume (Vd) in “in vivo [5]” was determined as 1 L/kg. In the data set “in vivo [6]”, this compound gave a half-life of 0.68 h.
On to `COc1ccc(F)cc1-c1c(F)cnc2[nH]c(C3=CCN([C@H]4CC[C@H](CC(=O)O)CC4)CC3)cc12`, for which, in “in vivo [1]”, the bioavailability amounted to 11%. Besides, the results for the unbound share (fraction unbound) in “in vitro [2]” and in the data set “in vitro [4]” were 0.082 and 0.041, respectively. The AUC in “in vivo [3]” was found to be 140 ng·h/mL. The compound further yielded a volume of distribution (Vd) in “in vivo [5]” of 2.9 L/kg. The half-life in the data set “in vivo [6]” is 2.8 h.
In the data set “in vivo [1]”, `COc1ccc(F)cc1-c1ccnc2[nH]c(C3=CCN([C@H]4CC[C@H](C(=O)O)CC4)CC3)cc12` returned a bioavailability of 23%. Further, the results for the unbound share (fraction unbound) in the data set “in vitro [2]” and in the data set “in vitro [4]” were 0.09 and 0.079, respectively. This compound also came in with an exposure (AUC) in the data set “in vivo [3]” of 400 ng·h/mL. The compound further registered a Vd in “in vivo [5]” of 1.9 L/kg. The compound also registered a concentration at 0.5 h in the data set “in vivo [7]” of 5500 ng/mL. This compound also had a half-life in “in vivo [6]” of 3.3 h.
The compound `COc1ccc(F)cc1-c1ccnc2[nH]c(C3=CCN([C@H]4CC[C@H](CC(=O)O)CC4)CC3)cc12` returned a bioavailability in the data set “in vivo [1]” of 21%. In addition, the free fraction (fraction unbound) in the data set “in vitro [2]” was 0.087; in the data set “in vitro [4]”, 0.037. Besides, in the data set “in vivo [3]”, the area under the curve (AUC) is 160 ng·h/mL. The Vd in “in vivo [5]” stood at 4.5 L/kg. In the data set “in vivo [6]”, the half-life was 2.8 h.
For the compound `COc1ccc(F)cc1-c1ccnc2[nH]c(C3=CCC(N4CCC(C(=O)O)CC4)CC3)cc12` (centres undefined), inhibition in the data set on NCI-H929 was half-maximal at 170 nM (IC50).
Compound `COc1ccc(F)cc1-c1ccnc2[nH]c(C3=CCN([C@H]4CC[C@@H](C(=O)O)CC4)CC3)cc12` yielded a bioavailability in the data set “in vivo [1]” of 20%. Besides, the free fraction (fraction unbound) in “in vitro [2]” was 0.16; in “in vitro [4]” it was 0.074. Further, the area under the curve (AUC) in the data set “in vivo [3]” is 160 ng·h/mL. For the same compound, the Vd in the data set “in vivo [5]” stood at 4.7 L/kg. The compound further gave a half-life in the data set “in vivo [6]” of 3.2 h.
`COc1ccc(F)cc1-c1ccnc2[nH]c(C3=CCN(c4ccc(CC(=O)O)cc4)CC3)cc12`: in the data set on NCI-H929, the IC50 was > 10000 nM.
The compound `COc1ccc(F)cc1-c1ccnc2[nH]c(C3=CCN([C@H]4CC[C@@H](CC(=O)O)CC4)CC3)cc12` returned a bioavailability in “in vivo [1]” of 7.9%. Besides, the fraction unbound was 0.183 in the data set “in vitro [2]” and 0.036 in “in vitro [4]”. The exposure (AUC) in the data set “in vivo [3]” worked out at 40 ng·h/mL. Besides, in the data set “in vivo [5]”, the volume of distribution (Vd) was determined as 3.4 L/kg. This compound also showed a half-life in the data set “in vivo [6]” of 1.7 h.
For the compound `COc1ccc(F)cc1-c1ccnc2[nH]c(C3=CCC(C(=O)O)CC3)cc12` (centres undefined), the bioavailability in “in vivo [1]” was determined as 70%. Further, the figures for the unbound share (fraction unbound) in “in vitro [2]” and in the data set “in vitro [4]” were 0.004 and 0.002, respectively. The AUC in the data set “in vivo [3]” amounted to 3100 ng·h/mL. In “in vivo [5]”, the Vd was found to be 0.51 L/kg. In addition, the half-life in “in vivo [6]” was 2.1 h.

One may read the bioavailability as the share of a dose that reaches the circulation, judged against a reference dose that is usually intravenous. The low end stands for little systemic uptake, the high end for much systemic uptake. A word on the fraction unbound: it is free concentration divided by total concentration. As a reminder, the AUC is concentration integrated over time. High values mean high exposure, low ones low exposure. In general, Vd refers to a proportionality between amount in the body and measured concentration, not a real space. Higher therefore signals extensive tissue distribution. Usually half-life stands for how long it takes for the measured level to halve. Low readings indicate rapid decline, high ones slow decline. What is called IC50 is the concentration needed to halve the response being measured. High values mean weaker potency, low ones greater potency.
